Data reported in ChEMBL document CHEMBL1201862, “PubChem BioAssay data set” (2004).
Active and inactive are the calls of the source.

Legend:
[1] = biological target: Beta-2 adrenergic receptor (Homo sapiens, UniProt P07550); assay: ADRB2 activation measured by internalization – cell-based, FAP fluorogen, flow cytometry, cherry pick 1, dose response (AID 588763); type: functional
cells [2] = type: functional, cell-based
Cytochrome P450 2C19 = Cytochrome P450 2C19 (Homo sapiens, UniProt P33261); assay: Cytochrome panel assay with activity outcomes. Panel member name: p450-cyp2c19 Compounds with AC50 equal or less than 10 uM are considered active; type: functional; conditions: read-out: AC50
cells [3] = type: functional, cell-based; remark: listed apart in the source
Cytochrome P450 2D6 = Cytochrome P450 2D6 (Homo sapiens, UniProt P10635);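 further: CYP2D6 member of a cytochrome P450 panel assay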
[4] = biological target: T1, Sentrin-specific protease 8 (Homo sapiens, UniProt Q96LD8); assay: inhibition of human SENP8 cleavage activity – biochemical, luminescence, SAR follow-up (AID 504501); type: functional
T1 sequence (Q96LD8 whole entry): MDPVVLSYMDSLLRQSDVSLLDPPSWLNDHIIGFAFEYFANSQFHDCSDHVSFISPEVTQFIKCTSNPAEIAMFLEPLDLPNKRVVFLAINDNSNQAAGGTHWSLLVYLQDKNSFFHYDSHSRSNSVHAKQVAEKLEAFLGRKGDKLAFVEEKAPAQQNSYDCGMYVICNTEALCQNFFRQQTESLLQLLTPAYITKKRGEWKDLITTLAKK

Caspase-3 = biological target: T2, Caspase-3 (Homo sapiens, UniProt P42574); assay: SAR Analysis of small molecule inhibitors of Sentrin-specific proteases (SENPs) using a Caspase-3 Selectivity assay. [Related pubchem assays (depositor defined):AID2540, AID2599, AID434973, AID489001]; type: functional
T2 sequence (P42574 whole entry): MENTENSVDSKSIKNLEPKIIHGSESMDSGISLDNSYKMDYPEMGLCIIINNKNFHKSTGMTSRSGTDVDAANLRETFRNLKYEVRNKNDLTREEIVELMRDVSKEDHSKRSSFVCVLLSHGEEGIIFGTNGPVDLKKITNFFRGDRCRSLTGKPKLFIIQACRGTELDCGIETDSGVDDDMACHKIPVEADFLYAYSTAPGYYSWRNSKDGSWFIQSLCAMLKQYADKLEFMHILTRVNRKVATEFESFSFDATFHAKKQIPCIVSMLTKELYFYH

[5] = biological target: T3, Sentrin-specific protease 6 (Homo sapiens, UniProt Q9GZR1); assay: SAR Analysis of small molecule inhibitors of Sentrin-specific protease 6 (SENP6) using a Luminescent assay. [Related pubchem assays (depositor defined):AID2582, AID2599]; type: functional
T3 sequence (Q9GZR1 whole entry): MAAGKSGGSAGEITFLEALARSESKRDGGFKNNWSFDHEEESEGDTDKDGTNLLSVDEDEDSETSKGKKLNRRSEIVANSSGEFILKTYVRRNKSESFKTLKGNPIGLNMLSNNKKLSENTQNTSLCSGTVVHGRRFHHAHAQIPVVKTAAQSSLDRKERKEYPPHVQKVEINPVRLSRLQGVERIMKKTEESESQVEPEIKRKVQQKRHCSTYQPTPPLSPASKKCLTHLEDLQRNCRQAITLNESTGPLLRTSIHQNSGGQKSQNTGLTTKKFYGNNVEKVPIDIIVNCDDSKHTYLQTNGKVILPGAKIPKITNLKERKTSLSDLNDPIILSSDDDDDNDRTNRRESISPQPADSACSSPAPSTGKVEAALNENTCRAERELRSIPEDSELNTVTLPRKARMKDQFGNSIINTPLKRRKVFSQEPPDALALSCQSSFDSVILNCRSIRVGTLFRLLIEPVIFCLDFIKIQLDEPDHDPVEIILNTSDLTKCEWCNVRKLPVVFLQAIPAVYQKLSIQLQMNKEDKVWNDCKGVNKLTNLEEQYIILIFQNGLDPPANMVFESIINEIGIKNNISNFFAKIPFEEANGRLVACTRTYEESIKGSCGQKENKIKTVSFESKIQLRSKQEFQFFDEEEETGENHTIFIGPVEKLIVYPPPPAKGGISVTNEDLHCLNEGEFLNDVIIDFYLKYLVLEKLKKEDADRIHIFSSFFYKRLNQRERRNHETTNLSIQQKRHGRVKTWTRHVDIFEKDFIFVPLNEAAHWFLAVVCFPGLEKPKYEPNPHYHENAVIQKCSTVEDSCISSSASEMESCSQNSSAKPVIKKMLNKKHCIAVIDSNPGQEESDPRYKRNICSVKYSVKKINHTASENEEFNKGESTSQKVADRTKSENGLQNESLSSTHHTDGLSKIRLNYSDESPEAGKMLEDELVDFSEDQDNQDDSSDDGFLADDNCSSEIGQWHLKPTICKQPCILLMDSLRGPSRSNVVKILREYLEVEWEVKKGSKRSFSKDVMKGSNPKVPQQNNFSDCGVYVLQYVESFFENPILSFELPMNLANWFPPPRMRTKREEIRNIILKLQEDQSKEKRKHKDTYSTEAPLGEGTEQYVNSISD

[6] = biological target: T4, Sentrin-specific protease 7 (Homo sapiens, UniProt Q9BQF6); assay: inhibition of human SENP7 cleavage activity – biochemical, luminescence, SAR follow-up (AID 504497); type: functional
T4 sequence (Q9BQF6 whole entry): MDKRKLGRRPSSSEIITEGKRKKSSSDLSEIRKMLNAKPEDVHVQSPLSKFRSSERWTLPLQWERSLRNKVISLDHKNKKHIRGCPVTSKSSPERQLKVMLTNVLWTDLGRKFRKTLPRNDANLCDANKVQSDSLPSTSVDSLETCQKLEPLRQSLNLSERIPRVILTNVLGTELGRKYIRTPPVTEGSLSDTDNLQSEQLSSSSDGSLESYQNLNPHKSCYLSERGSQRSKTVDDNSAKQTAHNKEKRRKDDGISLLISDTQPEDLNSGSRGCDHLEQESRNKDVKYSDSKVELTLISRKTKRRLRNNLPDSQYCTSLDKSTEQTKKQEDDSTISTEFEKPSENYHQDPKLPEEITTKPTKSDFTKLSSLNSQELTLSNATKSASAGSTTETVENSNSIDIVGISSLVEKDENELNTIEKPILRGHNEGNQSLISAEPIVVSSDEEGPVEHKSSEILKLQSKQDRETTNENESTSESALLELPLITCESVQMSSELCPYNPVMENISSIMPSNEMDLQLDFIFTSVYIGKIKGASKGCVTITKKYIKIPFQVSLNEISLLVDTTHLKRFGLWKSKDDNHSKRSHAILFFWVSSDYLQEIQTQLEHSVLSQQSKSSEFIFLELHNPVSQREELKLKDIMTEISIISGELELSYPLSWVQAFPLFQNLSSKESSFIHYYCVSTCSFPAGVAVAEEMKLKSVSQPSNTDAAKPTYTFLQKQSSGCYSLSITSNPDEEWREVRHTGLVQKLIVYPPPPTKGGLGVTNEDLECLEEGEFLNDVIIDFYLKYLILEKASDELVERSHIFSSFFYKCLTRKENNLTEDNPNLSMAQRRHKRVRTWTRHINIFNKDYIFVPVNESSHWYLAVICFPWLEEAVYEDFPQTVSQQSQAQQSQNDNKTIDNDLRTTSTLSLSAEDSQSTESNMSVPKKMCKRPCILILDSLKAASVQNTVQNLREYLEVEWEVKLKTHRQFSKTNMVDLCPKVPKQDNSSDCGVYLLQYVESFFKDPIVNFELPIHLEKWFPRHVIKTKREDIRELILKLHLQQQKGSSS

[7] = biological target: T5, Corticotropin-releasing factor receptor 2/Corticotropin-releasing factor-binding protein (Homo sapiens, UniProt P24387+Q13324); assay: activators of CRF receptor 2 with binding protein – uHTS hits, confirmation (AID 602473); type: functional; conditions: read-out: EC50_Mean
T5 sequence (Q13324 whole entry): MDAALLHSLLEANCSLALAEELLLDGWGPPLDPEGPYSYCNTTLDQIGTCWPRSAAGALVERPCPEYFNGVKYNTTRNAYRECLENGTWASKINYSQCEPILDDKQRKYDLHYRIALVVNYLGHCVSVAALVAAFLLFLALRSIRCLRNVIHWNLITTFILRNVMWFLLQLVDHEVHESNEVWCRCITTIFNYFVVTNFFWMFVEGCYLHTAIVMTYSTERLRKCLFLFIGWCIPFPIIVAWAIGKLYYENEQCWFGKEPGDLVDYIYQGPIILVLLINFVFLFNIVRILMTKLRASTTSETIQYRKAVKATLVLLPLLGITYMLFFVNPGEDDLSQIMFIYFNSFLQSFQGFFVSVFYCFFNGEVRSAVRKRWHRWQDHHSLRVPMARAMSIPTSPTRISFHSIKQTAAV
T5 sequence (P24387 whole entry): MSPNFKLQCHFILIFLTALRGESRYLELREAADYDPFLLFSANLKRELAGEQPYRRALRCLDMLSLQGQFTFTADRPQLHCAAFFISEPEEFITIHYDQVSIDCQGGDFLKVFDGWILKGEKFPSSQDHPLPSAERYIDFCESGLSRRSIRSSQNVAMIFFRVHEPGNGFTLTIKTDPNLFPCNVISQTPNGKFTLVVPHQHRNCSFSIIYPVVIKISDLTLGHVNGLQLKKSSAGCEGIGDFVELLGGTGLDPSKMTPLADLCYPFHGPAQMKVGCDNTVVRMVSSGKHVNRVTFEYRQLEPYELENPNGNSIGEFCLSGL

[8] = biological target: Latent membrane protein 1 (Human herpesvirus 4 (strain B95-8), UniProt P03230); assay: LMP1 TES1 pathway selectivity over dsRED control – imaging, HEK293T, dual-color eGFP/dsRED, cherry-picks, selectivity assay for LMP1 NF-kB inhibitor project, dose response (AID 588398); type: functional, cell-based
[9] = MIN6 cell viability loss – mouse insulinoma, cytotoxicity control, dose response (AID 2122); type: functional;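 further: confirmatory high-throughput counterscreen run to flag cytotoxic compounds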
[10] = alpha-synuclein stem-loop luciferase translation blockers – H4 neuroglioma cells, luminescence, confirmation (AID 1988); type: functional, cell-based
[11] = Luminescence Cell-Based Dose Response HTS to Identify Inhibitors of 5'UTR Stem-Loop Driven Prion Protein mRNA Translation in H4 Neuroglioblastoma Cells. [Related pubchem assays: 1827 (Project Summary), 1813 (Primary HTS)]; type: functional
HEK293 = assay: EBV LMP1 TES2 canonical NF-kB signalling blockers – cell-based, HEK293, luciferase, cherry-pick, dose response (AID 588343); type: functional; conditions: Homo sapiens
[12] = biological target: T6, Heat shock factor protein 1 (Mus musculus, UniProt P38532); assay: decrease of HSF1-responsive luciferase luminescence – cell-based, NIH3T3, dose retest, confirmation (AID 2382); type: functional;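 further: NIH3T3 fibroblasts with HSF1-driven luciferase reporter stressed by proteasome inhibitor MG132; luminescence from HSF1-driven luciferase expression after 8 hours of MG132 stress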
T6 sequence (P38532 whole entry): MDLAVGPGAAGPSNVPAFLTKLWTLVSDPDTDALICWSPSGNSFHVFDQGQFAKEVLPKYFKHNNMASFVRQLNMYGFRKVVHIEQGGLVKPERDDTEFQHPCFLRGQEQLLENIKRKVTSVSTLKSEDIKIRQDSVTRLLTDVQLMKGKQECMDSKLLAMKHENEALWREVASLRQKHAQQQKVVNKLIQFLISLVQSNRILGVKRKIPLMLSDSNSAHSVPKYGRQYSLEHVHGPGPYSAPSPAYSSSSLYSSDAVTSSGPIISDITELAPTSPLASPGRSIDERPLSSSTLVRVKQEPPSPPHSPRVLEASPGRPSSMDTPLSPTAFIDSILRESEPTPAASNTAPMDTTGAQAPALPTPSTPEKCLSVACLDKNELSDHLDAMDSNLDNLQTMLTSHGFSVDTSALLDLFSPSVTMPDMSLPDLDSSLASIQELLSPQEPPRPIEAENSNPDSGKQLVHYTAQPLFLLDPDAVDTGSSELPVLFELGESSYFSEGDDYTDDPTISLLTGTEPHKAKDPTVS

[13] = luciferase reporter signal suppression in cells – H4 neuroglioma cells, luminescence, dose response (AID 1990); type: functional, cell-based
INS1 = assay: INS-1E survival protection against cytokine death – cell-based, luminescence, retest, dose response (AID 449756); type: functional; conditions: Rattus norvegicus;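 further: cell death triggered by IL-1 beta plus TNF-alpha plus IFN-gamma mixture; protective hits raise ATP signal compared with cytokine alone wells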
[14] = decrease of insulin promoter-GFP reporter – imaging, high-content screening, mouse beta cells (AID 1628); type: functional; conditions: MIN6

Sequence of Latent membrane protein 1 (P03230 whole entry): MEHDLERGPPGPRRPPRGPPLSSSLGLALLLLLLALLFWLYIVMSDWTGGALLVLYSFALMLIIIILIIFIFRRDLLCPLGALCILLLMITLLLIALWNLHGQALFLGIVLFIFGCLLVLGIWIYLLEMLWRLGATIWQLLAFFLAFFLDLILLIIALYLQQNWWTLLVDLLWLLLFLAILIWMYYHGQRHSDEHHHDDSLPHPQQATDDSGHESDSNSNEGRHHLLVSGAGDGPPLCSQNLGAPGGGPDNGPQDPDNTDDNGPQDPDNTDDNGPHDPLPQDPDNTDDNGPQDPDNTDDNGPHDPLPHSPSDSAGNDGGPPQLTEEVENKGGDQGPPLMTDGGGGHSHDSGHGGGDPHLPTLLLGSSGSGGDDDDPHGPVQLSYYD
Sequence of Beta-2 adrenergic receptor (P07550 whole entry): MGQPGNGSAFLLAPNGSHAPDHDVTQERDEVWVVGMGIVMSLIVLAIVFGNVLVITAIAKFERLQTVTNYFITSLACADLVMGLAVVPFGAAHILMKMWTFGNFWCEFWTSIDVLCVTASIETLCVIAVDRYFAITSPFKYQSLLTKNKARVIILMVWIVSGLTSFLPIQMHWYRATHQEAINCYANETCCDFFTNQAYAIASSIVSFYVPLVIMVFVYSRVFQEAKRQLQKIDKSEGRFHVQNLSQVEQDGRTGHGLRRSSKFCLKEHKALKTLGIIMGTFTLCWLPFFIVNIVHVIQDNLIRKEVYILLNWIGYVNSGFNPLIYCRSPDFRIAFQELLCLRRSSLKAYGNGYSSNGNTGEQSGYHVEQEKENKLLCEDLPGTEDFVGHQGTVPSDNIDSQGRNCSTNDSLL
Sequence of Cytochrome P450 2D6 (P10635 whole entry): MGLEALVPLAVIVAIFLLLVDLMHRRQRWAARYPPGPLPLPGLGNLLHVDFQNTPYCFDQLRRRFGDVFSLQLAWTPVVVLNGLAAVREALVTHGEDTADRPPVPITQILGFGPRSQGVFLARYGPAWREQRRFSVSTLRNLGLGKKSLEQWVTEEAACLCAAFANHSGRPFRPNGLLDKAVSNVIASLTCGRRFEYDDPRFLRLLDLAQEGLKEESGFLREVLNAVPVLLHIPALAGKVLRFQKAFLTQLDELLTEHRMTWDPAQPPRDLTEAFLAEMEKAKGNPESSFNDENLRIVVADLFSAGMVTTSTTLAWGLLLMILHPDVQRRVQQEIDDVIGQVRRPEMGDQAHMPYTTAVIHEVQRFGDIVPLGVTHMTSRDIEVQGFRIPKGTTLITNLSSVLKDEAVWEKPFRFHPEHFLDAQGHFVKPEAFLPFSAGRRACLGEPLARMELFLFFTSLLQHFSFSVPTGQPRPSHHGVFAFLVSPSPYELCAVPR
Sequence of Cytochrome P450 2C19 (P33261 whole entry): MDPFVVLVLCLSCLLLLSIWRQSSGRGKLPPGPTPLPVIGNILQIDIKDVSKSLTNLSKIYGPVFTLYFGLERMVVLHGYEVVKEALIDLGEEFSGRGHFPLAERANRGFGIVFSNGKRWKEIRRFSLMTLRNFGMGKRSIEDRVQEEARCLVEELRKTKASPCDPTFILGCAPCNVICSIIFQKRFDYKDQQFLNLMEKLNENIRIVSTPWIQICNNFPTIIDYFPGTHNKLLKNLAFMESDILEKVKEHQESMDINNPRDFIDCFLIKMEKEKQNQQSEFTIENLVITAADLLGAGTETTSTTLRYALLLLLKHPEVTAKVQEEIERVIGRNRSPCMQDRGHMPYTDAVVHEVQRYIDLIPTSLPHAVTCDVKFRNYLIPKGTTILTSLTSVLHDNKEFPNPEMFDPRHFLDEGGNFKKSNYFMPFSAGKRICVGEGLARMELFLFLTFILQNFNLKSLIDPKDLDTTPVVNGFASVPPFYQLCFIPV

For `C=CCn1c(CCNC(=O)c2cccs2)nnc1SCC(=O)c1cccc([N+](=O)[O-])c1`, the EC50 [1] was 0.133 µM (active).
In the case of `COc1ccccc1-c1cc(C(F)(F)F)nc(S(=O)(=O)CCCC(=O)NC(C)C)n1`, the EC50 [1] was 9.33 µM (active), the EC50 (cells [2]) was 51.6 µM (active) and the AC50 (Cytochrome P450 2C19) was 6.31 µM (inconclusive). The EC50 (cells [3]) was > 350 µM (not active) and the AC50 (Cytochrome P450 2D6) was “inconclusive”.
In the case of `CS(=O)(=O)c1ccc(N/N=C/c2cn(Cc3ccccc3)c3ccccc23)cc1`, the IC50 [4] was > 99 µM (inactive), the IC50 (Caspase-3) was > 99 µM (inactive) and the IC50 [5] was > 99 µM (inactive). The IC50 [6] was > 99 µM (inactive).
In the case of `O=c1c([N+](=O)[O-])cn(Cc2ccccc2)c(=O)n1Cc1ccccc1`, the EC50 [7] was > 53 µM (inactive) and the AC50 [8] was 108 µM (active).
For `O=C(N/N=C/c1ccc[nH]1)c1ccc(COc2cccc3cccnc23)cc1`, the IC50 [9] was 0.574 µM (active), the EC50 [10] was 9.79 µM (active) and the EC50 [11] was > 120 µM (not active). For the same compound, the AC50 (HEK293) was 6.13 µM (active), the AC50 [8] was 9.15 µM (active) and the EC50 [12] was 0.16 µM (active). For the same compound, the EC50 [13] was 8.34 µM (active), the AC50 (INS1) was 1.05 µM (active) and the IC50 [14] was 0.65 µM (active).
